Reference: US12435044B2, “Pyridazinone herbicides and pyridazinone intermediates used to prepare a herbicide” (FMC Corporation, priority 2018, dated 2025)

Legend:
Format in all cases: in vivo
[1] = tested on: ryegrass, Italian (Lolium multiflorum); assay: Test A pre-/postemergence greenhouse test
From the text: (§1) Seeds of plant species selected from barnyardgrass (Echinochloa crus-galli), kochia (Kochia scoparia), ragweed (common ragweed, Ambrosia elatior), ryegrass, Italian (Lolium multiflorum), foxtail, giant (Setaria faberii), foxtail, green (Setaria viridis) and pigweed (Amaranthus retroflexus) were planted into a blend of loam soil and sand and treated preemergence with a directed soil spray using test chemicals formulated in a non-phytotoxic solvent mixture which included a surfactant.
(§2) At the same time, plants selected from these weed species and also wheat (Triticum aestivum), corn (Zea mays), blackgrass (Alopecurus myosuroides) and galium (catchweed bedstraw, Galium aparine) were planted in pots containing the same blend of loam soil and sand and treated with postemergence applications of test chemicals formulated in the same manner. Plants ranged in height from 2 to 10 cm and were in the one- to two-leaf stage for the postemergence treatment. Treated plants and untreated controls were maintained in a greenhouse for approximately 10 d, after which time all treated plants were compared to untreated controls and visually evaluated for injury. Plant response ratings, summarized in Table A, are based on a 0 to 100 scale where 0 is no effect and 100 is complete control. A dash (-) response means no test result.

[2] = tested on: ragweed (common ragweed, Ambrosia elatior); assay: Test A pre-/postemergence greenhouse test
From the text: as §1, §2

kochia (Kochia scoparia) [3] = assay: Test A pre-/postemergence greenhouse test
From the text: as §1, §2

[4] = tested on: pigweed (Amaranthus retroflexus); assay: Test A pre-/postemergence greenhouse test
From the text: as §1, §2

[5] = tested on: barnyardgrass (Echinochloa crus-galli); assay: Test A pre-/postemergence greenhouse test
From the text: as §1, §2

[6] = tested on: barley, spring (Hordeum vulgare); assay: Test D pre-/postemergence controlled growth environment test
From the text: (§3) Seeds of plant species selected from blackgrass (Alopecurus myosuroides), galium (catchweed bedstraw, Galium aparine), kochia (Kochia scoparia), oilseed rape (Brassica napus), barley, spring (Hordeum vulgare), wheat, spring (Triticum aestivum), oat, wild (Avena fatua), barley, winter (Hordeum vulgare) and wheat, winter (Triticum aestivum) were planted into a silt loam soil and treated preemergence with test chemicals formulated in a non-phytotoxic solvent mixture which included a surfactant.
(§4) At the same time, plants selected from these crop and weed species and also bluegrass (annual bluegrass, Poa annua), canarygrass (littleseed canarygrass, Phalaris minor), chickweed (common chickweed, Stellaria media), bromegrass, downy (downy bromegrass, Bromus tectorum), field poppy (Papaver rhoeas), field violet (Viola arvensis), foxtail, green (Setaria viridis), deadnettle (henbit deadnettle, Lamium amplexicaule), ryegrass, Italian (Lolium multiflorum), lambsquarters (Chenopodium album), pigweed (Amaranthus retroflexus), chamomile (scentless chamomile, Matricaria inodora), Russian thistle (Salsola kali), speedwell (bird's-eye speedwell, Veronica persica), buckwheat, wild (Polygonum convolvulus), mustard, wild (Sinapis arvensis), radish, wild (Raphanus raphanistrum), windgrass (Apera spica-venti), geranium, cutleaf (Geranium dissectum) and Canada thistle (Cirsium arvense) were planted in pots containing Redi-Earth® planting medium (Scotts Company, 14111 Scottslawn Road, Marysville, Ohio 43041) comprising spaghnum peat moss, vermiculite, wetting agent and starter nutrients and treated with postemergence applications of the test chemicals formulated in the same manner. Plants ranged in height from 2 to 18 cm (1- to 4-leaf stage). Treated plants and controls were maintained in a controlled growth environment for 14 to 21 d after which time all species were compared to controls and visually evaluated. Plant response ratings, summarized in Table D, are based on a scale of 0 to 100 where 0 is no effect and 100 is complete control. A dash (-) response means no test result.

[7] = tested on: wheat, winter (Triticum aestivum); assay: as above
From the text: as §3, §4

oat, wild (Avena fatua) = assay: as above
From the text: as §3, §4

kochia (Kochia scoparia) [8] = assay: as above
From the text: as §3, §4

[9] = tested on: wheat, spring (Triticum aestivum); assay: as above
From the text: as §3, §4

[10] = tested on: blackgrass (Alopecurus myosuroides); assay: as above
From the text: as §3, §4

[11] = tested on: galium (catchweed bedstraw, Galium aparine); assay: as above
From the text: as §3, §4

## Cc1cc(Cl)c2ccccc2c1-c1c(O)c(Cl)nn(C)c1=O [Cpd. No. 65]
[1]; Postemergence, 31 g ai/ha
  Plant response rating (0 to 100 scale): 100
[1]; Postemergence, 125 g ai/ha
  Plant response rating (0 to 100 scale): 100
[1]; Preemergence, 31 g ai/ha
  Plant response rating (0 to 100 scale): 100
[1]; Preemergence, 125 g ai/ha
  Plant response rating (0 to 100 scale): 100
[2]; Postemergence, 31 g ai/ha
  Plant response rating (0 to 100 scale): 100
[2]; Postemergence, 125 g ai/ha
  Plant response rating (0 to 100 scale): 100
[2]; Preemergence, 31 g ai/ha
  Plant response rating (0 to 100 scale): 100
[2]; Preemergence, 125 g ai/ha
  Plant response rating (0 to 100 scale): 100
Kochia (Kochia scoparia) [3]; Postemergence, 31 g ai/ha
  Plant response rating (0 to 100 scale): 80
Kochia (Kochia scoparia) [3]; Postemergence, 125 g ai/ha
  Plant response rating (0 to 100 scale): 100
Kochia (Kochia scoparia) [3]; Preemergence, 31 g ai/ha
  Plant response rating (0 to 100 scale): 0
Kochia (Kochia scoparia) [3]; Preemergence, 125 g ai/ha
  Plant response rating (0 to 100 scale): 80
[4]; Postemergence, 31 g ai/ha
  Plant response rating (0 to 100 scale): 100
[4]; Postemergence, 125 g ai/ha
  Plant response rating (0 to 100 scale): 100
[4]; Preemergence, 31 g ai/ha
  Plant response rating (0 to 100 scale): 100
[4]; Preemergence, 125 g ai/ha
  Plant response rating (0 to 100 scale): 100
[5]; Postemergence, 31 g ai/ha
  Plant response rating (0 to 100 scale): 100
[5]; Postemergence, 125 g ai/ha
  Plant response rating (0 to 100 scale): 100
[5]; Preemergence, 31 g ai/ha
  Plant response rating (0 to 100 scale): 100
[5]; Preemergence, 125 g ai/ha
  Plant response rating (0 to 100 scale): 100
[6]; Postemergence, 16 g ai/ha
  Plant response rating, Barley, Spring: 57
[6]; Postemergence, 31 g ai/ha
  Plant response rating, Barley, Spring: 78
[6]; Postemergence, 62 g ai/ha
  Plant response rating, Barley, Spring: 88
[6]; Postemergence, 125 g ai/ha
  Plant response rating, Barley, Spring: 93
[6]; Preemergence, 16 g ai/ha
  Plant response rating, Barley, Spring: 0
[6]; Preemergence, 31 g ai/ha
  Plant response rating, Barley, Spring: 3
[6]; Preemergence, 62 g ai/ha
  Plant response rating, Barley, Spring: 5
[6]; Preemergence, 125 g ai/ha
  Plant response rating, Barley, Spring: 73
[7]; Postemergence, 16 g ai/ha
  Plant response rating, Wheat, Winter: 85
[7]; Postemergence, 31 g ai/ha
  Plant response rating, Wheat, Winter: 90
[7]; Postemergence, 62 g ai/ha
  Plant response rating, Wheat, Winter: 90
[7]; Postemergence, 125 g ai/ha
  Plant response rating, Wheat, Winter: 92
[7]; Preemergence, 16 g ai/ha
  Plant response rating, Wheat, Winter: 23
[7]; Preemergence, 31 g ai/ha
  Plant response rating, Wheat, Winter: 67
[7]; Preemergence, 62 g ai/ha
  Plant response rating, Wheat, Winter: 80
[7]; Preemergence, 125 g ai/ha
  Plant response rating, Wheat, Winter: 93
oat, wild (Avena fatua); Postemergence, 16 g ai/ha
  Plant response rating, Oat, Wild: 92
oat, wild (Avena fatua); Postemergence, 31 g ai/ha
  Plant response rating, Oat, Wild: 92
oat, wild (Avena fatua); Postemergence, 62 g ai/ha
  Plant response rating, Oat, Wild: 96
oat, wild (Avena fatua); Postemergence, 125 g ai/ha
  Plant response rating, Oat, Wild: 99
oat, wild (Avena fatua); Preemergence, 16 g ai/ha
  Plant response rating, Oat, Wild: 28
oat, wild (Avena fatua); Preemergence, 31 g ai/ha
  Plant response rating, Oat, Wild: 80
oat, wild (Avena fatua); Preemergence, 62 g ai/ha
  Plant response rating, Oat, Wild: 83
oat, wild (Avena fatua); Preemergence, 125 g ai/ha
  Plant response rating, Oat, Wild: 97
Kochia (Kochia scoparia) [8]; Postemergence, 16 g ai/ha
  Plant response rating, Kochia: 35
Kochia (Kochia scoparia) [8]; Postemergence, 31 g ai/ha
  Plant response rating, Kochia: 50
Kochia (Kochia scoparia) [8]; Postemergence, 62 g ai/ha
  Plant response rating, Kochia: 75
Kochia (Kochia scoparia) [8]; Postemergence, 125 g ai/ha
  Plant response rating, Kochia: 90
Kochia (Kochia scoparia) [8]; Preemergence, 16 g ai/ha
  Plant response rating, Kochia: 12
Kochia (Kochia scoparia) [8]; Preemergence, 31 g ai/ha
  Plant response rating, Kochia: 22
Kochia (Kochia scoparia) [8]; Preemergence, 62 g ai/ha
  Plant response rating, Kochia: 72
Kochia (Kochia scoparia) [8]; Preemergence, 125 g ai/ha
  Plant response rating, Kochia: 93
[9]; Postemergence, 16 g ai/ha
  Plant response rating, Wheat, Spring: 90
[9]; Postemergence, 31 g ai/ha
  Plant response rating, Wheat, Spring: 93
[9]; Postemergence, 62 g ai/ha
  Plant response rating, Wheat, Spring: 93
[9]; Postemergence, 125 g ai/ha
  Plant response rating, Wheat, Spring: 93
[9]; Preemergence, 16 g ai/ha
  Plant response rating, Wheat, Spring: 63
[9]; Preemergence, 31 g ai/ha
  Plant response rating, Wheat, Spring: 78
[9]; Preemergence, 62 g ai/ha
  Plant response rating, Wheat, Spring: 90
[9]; Preemergence, 125 g ai/ha
  Plant response rating, Wheat, Spring: 100
[10]; Postemergence, 16 g ai/ha
  Plant response rating, Blackgrass: 83
[10]; Postemergence, 31 g ai/ha
  Plant response rating, Blackgrass: 90
[10]; Postemergence, 62 g ai/ha
  Plant response rating, Blackgrass: 93
[10]; Postemergence, 125 g ai/ha
  Plant response rating, Blackgrass: 95
[10]; Preemergence, 16 g ai/ha
  Plant response rating, Blackgrass: 13
[10]; Preemergence, 31 g ai/ha
  Plant response rating, Blackgrass: 23
[10]; Preemergence, 62 g ai/ha
  Plant response rating, Blackgrass: 63
[10]; Preemergence, 125 g ai/ha
  Plant response rating, Blackgrass: 90
[11]; Postemergence, 16 g ai/ha
  Plant response rating, Galium: 85
[11]; Postemergence, 31 g ai/ha
  Plant response rating, Galium: 97
[11]; Postemergence, 62 g ai/ha
  Plant response rating, Galium: 97
[11]; Postemergence, 125 g ai/ha
  Plant response rating, Galium: 98
[11]; Preemergence, 16 g ai/ha
  Plant response rating, Galium: 13
[11]; Preemergence, 31 g ai/ha
  Plant response rating, Galium: 82
[11]; Preemergence, 62 g ai/ha
  Plant response rating, Galium: 98
[11]; Preemergence, 125 g ai/ha
  Plant response rating, Galium: 100
